# Data as given in article PMC12880750, “Mechanistic insights and in vivo HIV suppression by the BRD4-targeting small molecule ZL0580” (PLOS Pathogens, 2026).
# Like-named read-outs stand apart in the source and are kept apart here.
# Columns and labels:
# [1] = system: BRD4 BD1; assay: In vitro binding affinity (TR-FRET), BRD4 BD1; design: species or system human; conditions: from IC50 BD1 and BD2
# [2] = In vivo pharmacokinetics in ICR mice; design: species or system male ICR mice; conditions: mouse, plasma
# Method: Animal experiments assessing PK and in vivo toxicity profile of ZL0580 was performed by the contracting research organization (CRO) Sundia. The studies were performed according to the NIH Guide for Care and Use of Experimental Animals. The PK studies of ZL0580 was performed using male ICR mice (18–22 g). The mice were randomly divided into two groups (n = 3). The mice of the group 1 were intravenously administrated with ZL0580 [10 mg/kg, in 10% DMSO + 10% Solutol HS 15 + 80% HP-β-CD (20%, w/v)] and the mice of the group 2 were orally administrated with ZL0580 [20 mg/kg, in 10% DMSO + 90% HP-β-CD (20%, w/v)]. Blood samples of group 1 and group 2 mice were collected at the indicated time points post treatment and put into heparinized centrifugation tubes, which were centrifuged under the condition of 6800 rpm and 4 °C for 6 min. The supernatant was collected and stored at -20 °C for further LC-MS analysis. Before the plasma concentrations (AUC) were determined, standard curves were generated with various concentrations of ZL0580 and the internal standard (IS). All PK parameters were calculated with WinNonlin 6.4 software.
# [3] = molecular target: T1, BRD4 BD2 WT (Homo sapiens, UniProt O60885); assay: Thermal shift assay (TSA/DSF), BD2 WT; type: binding; conditions: eight increasing concentrations
# T1 construct: Constructs used for mutagenesis, including wild-type BD1 (BD1 WT), BD1 with an E151A mutation (BD1 E151A), and wild-type BD2 (BD2 WT); GST (cleaved yes); made in house
# Method: (§1) The melting temperatures shifts (ΔTm) were measured and the ΔTm curves as a function of compound-to-protein ratios were generated (Fig 2B–2C). […] As an additional control, the Tm of WT BD1 and E151A mutant in the absence of compound was also measured by TSA.
# (§2) Plasmid construction and subsequent protein expression and purification of BRD4 proteins were performed using OverExpress C43(DE3) bacterial competent cells (Lucigen) as described in our previous studies. In brief, 12 L of bacterial cultures grown to OD600 between 0.6-0.8 were induced at 37°C for 4 h by 1 mM isopropyl […] (IPTG). Bacterial sonication supernatant in the lysis buffer (500 mM NaCl, 20 mM Tris-HCl pH 7.9 at 4°C, 20% glycerol, 1 mM EDTA, 0.2 mM DTT, and protease inhibitors) was incubated with glutathione (GSH) agarose beads (GOLDBIO, G-250–100) overnight with rotation at 4°C. The protein-bound GSH beads were washed three times with the lysis buffer and digested with human rhinovirus 3C protease (HRV-P3C; Thermal Fisher 88946) at 4°C for 4 h, according to the manufacture’s procedure, to remove GST tag from BD1/2 proteins. Untagged BRD4-BD1 and -BD2 were separated from HRV-P3C via passing through a HiTrap Q HP anion exchange chromatography column (GE Healthcare, GE17-1154-01) and eluted by a salt gradient from 100 mM to 1 M NaCl. […]
# [4] = molecular target: T2, BRD4 BD1 E151A (Homo sapiens, UniProt O60885, E151A); assay: Thermal shift assay (TSA/DSF), BD1 E151A mutant; type: binding; conditions: eight increasing concentrations
# T2 construct: Constructs used for mutagenesis, including wild-type BD1 (BD1 WT), BD1 with an E151A mutation (BD1 E151A), and wild-type BD2 (BD2 WT); GST (cleaved yes); made in house
# Method: as §1, §2
# [5] = In vivo toxicity study in ICR mice; design: key to Detail clinical observation during administration period (symptom number): 01. normal; 02. Cavity to observe; 03. Discolored skin; 04. Salivation; 05. Emesis; 06. Lacrimation; 07. ptosis; 08.Decreased respira tion; 09. Increased respiration; 10. anhelation; 11. Ataxia; 12. Loose stools; 13. Limb’s tremor; 14. Ey e; 15.Weakness; 16. Hyperreactivity; 17. Emaciation; 18. Whole body touch; 19. Cough; 20. At the injection site; 21. Alopecia genitalized; 22. convulsion; 23. Corna; 24. Death; key to Necropsy macroscopic (all organs examined): –: normal-; slight +; midrange ++; severe ++++; conditions: for Detail clinical observation during administration period (symptom number): all 10 animals (5 F, 5 M), Day 1 (twice) to Day 7; for Necropsy macroscopic (all organs examined): all organs listed
# Method: The acute toxicity studies were performed in both male and female ICR mice. The mice were divided into 3 groups (each group, n = 10, 5 males and 5 females). Group 1 was the vehicle group without ZL0580 treatment (po, 20% DMA + 20% Solutol HS15 + 60% HP-β-CD (20%, w/v)). Group 2, and group 3 mice were orally administrated with ZL0580 at doses of 100 mg/kg and 300 mg/kg [in 20% Dimethyl Acetamide (DMA) + 20% Solutol HS15 + 60% HP-β-CD (20%, w/v)], respectively. The body weights of all mice were weighed on day 1, 3, and 7 after treatments. The mean body weights of all mice in each group were calculated, and the standard curves were generated with the mean body weights of each group mice at different recorded time points. The food consumption masses of each group mice were recorded on day 1, 2, 3, 4, and 5 after treatments. The mean food consumption of all mice in each group was calculated, and the standard curves were generated with the mean food consumption of each group at different recorded time points.
# [6] = system: J-Lat cells (clone 10.6); assay: RNA-Seq differential gene expression; type: cell-based, human; conditions: 5 μM, 24 hours, vs. NC; p < 0.001 and log2 fold change > 1
# [7] = system: CDK9 binding to HIV 5′-LTR in J-Lat cells (10.6); assay: ChIP-qPCR of CDK9 binding to HIV 5'-LTR; type: cell-based, human; conditions: PMA (50ng/ml) + compound 5 μM, 24 hours
# [8] = ICR mice, 100 mg/kg or 300 mg/kg daily for 7 days
# [9] = ICR mice, 100 mg/kg or 300 mg/kg, end of the study
smiles,measurement,setting,value
O=C(Nc1ccc(C(F)(F)F)cc1)Nc1ccc(S(=O)(=O)N2CCC[C@H]2C(=O)Nc2ccccc2)cc1 [ZL0580],Selectivity (BRD4 BD1 vs BD2),[1],about 7 fold
same,AUC(0-t),"[2]; male, IV, 10 mg/kg, ICR mice",14400 ± 3470 ng·h/mL
same,AUC(0-inf),"[2]; male, IV, 10 mg/kg, ICR mice, read-out: AUC0-∞",14400 ± 3470 ng·h/mL
same,Cmax,"[2]; IV (10 mg/kg), male ICR mice",19300 ± 2790 ng/mL
same,MRT inf,"[2]; IV (10 mg/kg), male ICR mice",0.73 ± 0.12 h
same,clearance,"[2]; IV (10 mg/kg), male ICR mice",12 mL/min/kg
same,half-life,"[2]; IV (10 mg/kg), male ICR mice",0.91 ± 0.06 h
same,Vd,"[2]; IV (10 mg/kg), male ICR mice, read-out: Vz",0.95 ± 0.28 L/kg
same,AUC(0-t),"[2]; PO (20 mg/kg), male ICR mice",5590 ± 1880 ng·h/mL
same,Cmax,"[2]; PO (20 mg/kg), male ICR mice",1470 ± 186 ng/mL
same,MRT inf,"[2]; PO (20 mg/kg), male ICR mice",3.18 ± 1.39 h
same,half-life,"[2]; PO (20 mg/kg), male ICR mice",2.54 ± 2.24 h
same,AUC(0-inf),"[2]; PO (20 mg/kg), male ICR mice, read-out: AUC0-inf",5800 ± 2120 ng·h/mL
same,Effect on stability of WT BD2 (TSA),[3],sparing BD2
same,Effect on stability of BD1 E151A mutant (TSA),[4],almost no effect
same,Detail clinical observation during administration period (symptom number),"[5]; Group 2, 100 mg/kg PO",01
same,Necropsy macroscopic (all organs examined),"[5]; Group 2, 100 mg/kg PO, all 10 animals",–
same,Detail clinical observation during administration period (symptom number),"[5]; Group 3, 300 mg/kg PO",01
same,Necropsy macroscopic (all organs examined),"[5]; Group 3, 300 mg/kg PO, females 801-805 shown",–
same,Tolerability in vivo,"[5]; ICR mice, 100 mg/kg or 300 mg/kg PO daily for 7 days",well tolerated
same,Changes in body weights,[5]; [8],little to no changes
same,Changes in food consumption,[5]; [8],little to no changes
same,Necropsy and gross pathological examinations,[5]; [9],no abnormalities
same,Serum biochemistry,[5]; [9],no abnormalities
same,Clinical signs of toxicity,"[5]; ICR mice, 100 mg/kg or 300 mg/kg, throughout the study",No clinical signs of toxicity were observed
same,Downregulated genes,[6],104 genes
same,Significantly regulated genes (total),[6],166 genes
same,Upregulated genes,[6],62 genes
same,Reduction of CDK9 binding relative to PMA alone,[7],~ 3.8 fold
